Assay results taken from patent publication US8076287B2, “Cyclic hexadepsipeptides, processes for their production and their use as pharmaceuticals” (priority 2006, dated 2011).
Values after ≈ are worked out from the molar mass of the structure shown. Like-named read-outs stand apart in the source and are kept apart here.

Legend:
[1] = tested on: PC-3 (prostate adenocarcinoma); assay: In vitro cytotoxic activity (propidium iodide GI50); type: cell-based; conditions: 96 hrs
B. subtilis ATCC ™ 23857 = assay: MIC broth dilution, antibacterial activity; type: cell-based; conditions: Bacillus subtilis, ATCC23857, BHI+ medium
Sheep red blood cells = assay: In vitro toxicity: hemolytic activity; type: cell-based; conditions: 2 hrs at 37° C., prepared in DMSO
Description: In vitro toxicity: Sheep red blood cells were exposed to Compound 1 for 2 hrs at 37° C. at concentrations ranging from 2 to 64 μg/mL. Hemolytic activity was determined by monitoring the amount of hemoglobin released spectrophotometrically.

C. perfringens HER1390 = assay: microbe, parasite or virus in culture; type: cell-based; conditions: Clostridium perfringens
[2] = tested on: MDA-MB-231 (mammary gland adenocarcinoma); assay: In vitro cytotoxic activity (propidium iodide GI50); type: cell-based; conditions: Homo sapiens, 96 hrs
[3] = tested on: S. epidermidis ATCC ™ 12228; assay: MIC broth dilution, antibacterial activity; type: cell-based; conditions: Staphylococcus epidermidis, ATCC12228, MH medium, 35° C., 16 to 20 hours
SF-268 (CNS) = assay: In vitro cytotoxic activity (propidium iodide GI50); type: cell-based; conditions: Homo sapiens, 96 hrs
M. Luteus ATCC ™ 9341 = assay: MIC broth dilution, antibacterial activity; type: cell-based; conditions: Micrococcus luteus, ATCC9341, MH medium
[4] = tested on: HT-29 (colorectal carcinoma); assay: In vitro cytotoxic activity (propidium iodide GI50); type: cell-based; conditions: Homo sapiens, 96 hrs
[5] = In vivo acute toxicity (MTD); set-up: species or system CD-1 nu/nu mice; conditions: CD-1 nu/nu, mouse, saline with 10% EtOH and 7.5% polysorbate 80, read-out: maximum tolerated dose (MTD)
Description: In vivo toxicity: The acute toxicity in CD-1 nu/nu mice of Compound 1 was determined in a saline solution comprising 10% EtOH and 7.5% polysorbate 80. When given i.p., the maximum tolerated dose (MTD) was ≧5 mg/kg. The MTD was 2.5 mg/kg when Compound 1 was administered i.v.

[6] = tested on: S. pneumoniae LSPQ 3349 (Penicillin resistant); assay: MIC broth dilution, antibacterial activity; type: cell-based; conditions: Streptococcus pneumoniae, MH + 2% lysed horse blood
[7] = tested on: Candida albicans ATCC™10231; assay: Antifungal activity, NCCLS M27-A broth dilution; type: cell-based; conditions: ATCC10231, after 48 hours, RPMI 1640
Description: Testing of antifungal activity was performed according to NCCLS method (NCCLS. Reference Method for Broth Dilution Antifungal Susceptibility Testing of Yeasts; Approved Standard. NCCLS document M27-A (ISBN 1-56238-328-0). NCCLS, 940 West Valley Road, Suite 1400, Wayne, Pa. 19087-1898 USA). Compound 1 was prepared as 100× stock solutions in DMSO, with concentrations ranging from 3.2 mg/mL to 0.003 mg/mL (a two-fold dilution series over 11 points). An aliquot of each 100× stock solution was diluted 50-fold in test medium described below to give a set of eleven (11) 2× solutions. 50 μL of each of the eleven 2× solutions was aliquoted into the corresponding well of a 12-well row, with the final well reserved for medium alone control. Inoculum density for the Candida albicans ATCC™10231 indicator strain was adjusted to OD600=0.1 in 5 mL 0.85% saline, then further diluted 1/1000 in RPMI 1640 medium. 50 μL of the final dilution (in test medium) of each indicator strain was added to each well of a 12-well row. This brings the final dilution of the test article or control compound in solution to 1×. The final inoculum was approximately 5×10^4 CFU/ml.

[8] = tested on: S. aureus ATCC ™ 6538P (MSSA); assay: MIC broth dilution, antibacterial activity; type: cell-based; conditions: Staphylococcus aureus, MH medium, 35° C., 16 to 20 hours
C. diphtheriae HER1356 = assay: MIC broth dilution, antibacterial activity; type: cell-based; conditions: Corynebacterium diphtheriae; C. diphtheriae HER1356 (strain C7); MH medium
C. difficile ATCC ™ 9689 = assay: microbe, parasite or virus in culture; type: cell-based, Clostridium difficile; conditions: Clostridioides difficile, ATCC9689
[9] = tested on: S. pneumoniae LSPQ 3412 (Penicillin sensitive); assay: MIC broth dilution, antibacterial activity; type: cell-based; conditions: Streptococcus pneumoniae, MH + 2% lysed horse blood
[10] = tested on: Enterococcus faecalis ATCC ™ 51299 (VRE); assay: MIC broth dilution, antibacterial activity; type: cell-based; conditions: BHI+ medium
[11] = tested on: HUVEC (human umbilical vein endothelial cells); assay: In vitro cytotoxic activity (propidium iodide GI50); type: cell-based; conditions: 72 hours
[12] = tested on: S. aureus MRS3 ATCC ™ 700699 (MRSA-hVISA); assay: MIC broth dilution, antibacterial activity; type: cell-based; conditions: Staphylococcus aureus, MH medium, 35° C., 16 to 20 hours
[13] = tested on: Enterococcus faecalis ATCC ™ 29212 (VSE); assay: MIC broth dilution, antibacterial activity; type: cell-based; conditions: ATCC29212, BHI+ medium
[14] = tested on: human MX-1 breast carcinoma xenograft; assay: In vivo efficacy in human breast cancer xenograft model; set-up: species or system Harlan female athymic nude mice
Description: The antitumor activity of Compound 1 was tested in vivo in a human MX-1 breast carcinoma model in mice, formulated in 10% ethanol, 7.5% ethanolic polysorbate 80 (1 g/mL in ethanol), and 82.5% saline. Harlan female athymic nude mice (12 weeks of age on Day 1 (D1)) were used for this study. Human MX-1 carcinoma was maintained in athymic nude mice by serial engraftment. A tumor fragment (1 mm^3) was implanted subcutaneously into the right flank of each test mouse. Tumors were monitored twice weekly and then daily as their mean volume approached 80-120 mm^3.
On D1, animals were sorted into treatment groups 1 to 4 (groups 1 to 3: 9 mice; group 4:10 mice), with tumor sizes of 63-144 mm^3 and group mean tumor sizes of about 99 mm^3. Tumor volumes were calculated as (width^2×length) divided by 2. Tumor weight was estimated with the assumption that 1 mg is equivalent to 1 mm^3 of tumor volume.
Starting on Day 1, each group was treated with dosing volumes of 0.2 mL/20-g mouse in Groups 1 and 2, and 0.1 mL/20-g mouse for Groups 3 and 4, scaled to the body weight of each animal, and according to the following protocol:
Tumor measurements were taken twice weekly using calipers and were converted to tumor weight. Tumor weight was estimated with the assumption that 1 mg is equivalent to 1 mm^3 of tumor volume (tumor volume was determined as above). Body weights were also recorded daily for Day 1 to 5, and then twice weekly.
Each animal was euthanized when its neoplasm reached the predetermined endpoint size (1,500 mm^3). The “time to endpoint” (TTE) for each mouse was calculated by the following equation:
[formula] where “TTE” is expressed in days, “endpoint volume” is in mm^3, “b” is the intercept, and “m” is the slope of the line obtained by linear regression of a log-transformed tumor growth data set. The data set comprised the first observation that exceeded the study endpoint volume and the three consecutive observations that immediately preceded the attainment of the endpoint volume.
Treatment efficacy was determined from “tumor growth delay” (TGD), which is defined as the increase in “T” the median TTE for a treatment group compared to “C” the median for control group 1: TGD=T−C, expressed in days, or as a percentage of the median TTE of the control group (% TGD=(TGD/C)×100).
The “percentage of tumor growth inhibition” (TGI) is calculated as:
[formula] wherein MTVtreated and MTVvehicle are respectively the “median tumor volume” for the animals treated with Compound 1 and animals receiving the vehicle, on day 18 and day 0. Two-tailed statistical analyses were done using GraphPad Prism™ software.
The “MTV(n)” is defined as the median tumor volume on Day 53 in the number of animals remaining, n, whose tumors have not attained endpoint volume.

Row | Structure (SMILES) | GI50 [1] | MIC (B. subtilis ATCC ™ 23857) | MIC (C. perfringens HER1390) | GI50 [2] | GI50 (SF-268 (CNS)) | MIC (M. Luteus ATCC ™ 9341) | GI50 [4] | MIC [6] | MIC (C. diphtheriae HER1356) | MIC (C. difficile ATCC ™ 9689) | MIC [9] | further results
1 | CCC1OC(O)(C(C)(O)C(=O)NC2C(=O)N3NCCCC3C(=O)N(O)CC(=O)N3NCCCC3C(=O)N3CCC(C)(O)C3C(=O)N(O)C(C(C)C)C(=O)OC2C(C)C)CCC1CC(C)C (centres unmarked) [Compound 1] | 66 nM | 0.004 µg/mL (≈ 0.00432 µM) | < 0.008 µg/mL | 28 nM | 25 nM | 0.063 µg/mL (≈ 0.0681 µM) | 37 nM | 0.031 µg/mL | < 0.008 µg/mL | < 0.008 µg/mL | 0.156 µg/mL | hemolytic activity (concentration) (Sheep red blood cells): 12.8 µM; hemolytic activity (concentration) (Sheep red blood cells; 2 to 64 μg/mL tested): 11.8 µg/mL; MIC [3]: 0.094 µg/mL (≈ 0.102 µM); MTD ([5]; ip): ≥ 5 mg/kg; MTD ([5]; iv): 2.5 mg/kg; MIC [7]: 8 µg/mL (≈ 8.65 µM); MIC [8]: 0.031 µg/mL (≈ 0.0335 µM); MIC [10]: 1 µg/mL (≈ 1.08 µM); GI50 [11]: 19 nM; MIC [12]: 0.5 µg/mL (≈ 0.54 µM); MIC [13]: 0.5 µg/mL (≈ 0.54 µM); percentage of tumor growth inhibition (TGI) ([14]; 1 mg/kg i.p., median tumor volume vs vehicle, day 18): 51.6%; MTV(3), median tumor volume on Day 53 in animals remaining ([14]; 1 mg/kg i.p., n=3 animals not at endpoint volume): 6 mm^3; body weight loss ([14]; 1 mg/kg i.p., on Day 8, mean body weight): 13%; tumor growth delay (TGD) ([14]; 1 mg/kg i.p., when compared with vehicle): 82%; body weight loss during q4d dosing ([14]; period Compound 1 was given once every four days): no severe body weight loss
2 | COc1cccc2c1C(=O)c1c(O)c3c(c(O)c1C2=O)C[C@@](O)(C(C)=O)C[C@@H]3O[C@H]1C[C@H](N)[C@H](O)[C@H](C)O1 [Daunorubicin, reference compound] | 11 nM | – | – | 9 nM | 19 nM | – | 20 nM | – | – | – | – | –
3 | CN[C@H](CC(C)C)C(=O)N[C@H]1C(=O)N[C@@H](CC(N)=O)C(=O)N[C@H]2C(=O)N[C@H]3C(=O)N[C@H](C(=O)N[C@H](C(=O)O)c4cc(O)cc(O)c4-c4cc3ccc4O)[C@H](O)c3ccc(c(Cl)c3)Oc3cc2cc(c3O[C@@H]2O[C@H](CO)[C@@H](O)[C@H](O)[C@H]2O[C@H]2C[C@](C)(N)[C@H](O)[C@H](C)O2)Oc2ccc(cc2Cl)[C@H]1O [Vancomycin, reference compound] | – | 0.25 µg/mL (≈ 0.173 µM) | 0.5 µg/mL (≈ 0.345 µM) | – | – | 2 µg/mL (≈ 1.38 µM) | – | 0.5 µg/mL | 0.5 µg/mL (≈ 0.345 µM) | 0.25 µg/mL (≈ 0.173 µM) | 0.25 µg/mL | –
